Measurements: ChEMBL document CHEMBL1141773, “SERCA-inhibiting activity of C-19 terpenolides from Thapsia garganica and their possible biogenesis” (J Nat Prod, 2005)

Tests used:
[1] = tested on: Lytechinus pictus; test: Inhibition of SERCA in sea urchin eggs assessed as Ca2+ leak rate; parameters: scale not given: the % may be the effect or the level left
[2] = tested on: Lytechinus pictus; test: Inhibition of SERCA in sea urchin eggs assessed as Ca2+ leak rate at 10 uM
[3] = Inhibition of SERCA in sea urchin eggs assessed as Ca2+ leak rate at 10 uM relative to thapsigargin; parameters: species or system Lytechinus pictus

| Activity [1] | Structure (SMILES) | Activity [2] | Ki [3] |
| --- | --- | --- | --- |
| 64.2% | C=C[C@@]1(C)CC[C@H]2[C@](C)(COC(C)=O)[C@H]3C=C4C=C(OC)OC(=O)[C@@H]1[C@@]42OC3=O | – | – |
| 61.4% | C=C[C@@]1(C)CC[C@H]2[C@](C)(C(=O)OC)[C@H]3C=C4C=C(OC)OC(=O)[C@@H]1[C@@]42OC3=O | – | – |
| – | C/C=C(/C)C(=O)O[C@H]1C(C)=C2[C@H]([C@@H]1OC(=O)CCCCCCC)[C@@](C)(OC(C)=O)C[C@H](OC(=O)CCC)[C@@]1(O)[C@H]2OC(=O)[C@@]1(C)O [THAPSIGARGIN] | 81 RFU/min | 2 pM |
| 65.4% | C=C[C@]1(C)CC[C@H]2C(C)(C)[C@H]3C=C4C=C(OC)OC(=O)[C@@H]1[C@@]42OC3=O | – | – |
| 65.4% | C=C[C@@]1(C)CC[C@H]2C(C)(C)[C@H]3C=C4C=C(OC)OC(=O)[C@@H]1[C@@]42OC3=O | – | – |
